These results are taken from ChEMBL document CHEMBL3301451, “MMV Malaria Box gametocyte functional viability assay screening”.

Test [1] relates to Plasmodium berghei. Nature of the test: MMV: P. berghei-infected blood was withdrawn from mice by cardiac pucture before being immediately added to ookinete culture medium containing test compounds. 26 hr later, GFP-positive ookinetes were identified and counted by automated microscopy. All compounds were tested in 4 independent experiments and data presented here is the mean. It is filed as functional. More on the design: concentration or dose not given beside the values.

Test [2] deals with Plasmodium berghei. The experiment in a line: MMV: P. berghei-infected blood was withdrawn from mice by cardiac pucture before being immediately added to ookinete culture medium containing test compounds. 26 hr later, GFP-positive ookinetes were identified and counted by automated microscopy. All compounds were tested in 4 independent experiments and data presented here is the mean. IC50s determined for selected compounds. It is filed as functional, organism-based.

The subject of test [3] is Plasmodium falciparum. The experiment in a line: MMV: P. falciparum NF54 functionally mature Stage V gametocytes were incubated for 24 hr in the presence of the test compounds. Gamete formation was then triggered by addition of 2uM xantheurenic acid and temperature decrease to ~20C. Male gamete exflagellation was recorded and analysed by automated microscopy after 20 min. All compounds were tested in 4 independent experiments and data presented here is the mean. The class given is functional. More on the design: concentration or dose not given beside the values.

Test [4] has as its system Plasmodium falciparum. The experiment in a line: MMV: P. falciparum NF54 functionally mature Stage V gametocytes were incubated for 24 hr in the presence of the test compounds. Gamete formation was then triggered by addition of 2uM xantheurenic acid and temperature decrease to ~20C. Female gamete formation was recorded 24 hr later by automated microscopy detection of surface labelling of female gametes with a Cy3-conjugated antibody reactive to Pfs25. All compounds were tested in 4 independent experiments and data presented here is the mean. Particulars: NF54, 24 h. Set-up: concentration or dose not given beside the values. It is filed as functional.

The subject of test [5] is Plasmodium falciparum. The experiment in a line: MMV: P. falciparum NF54 functionally mature Stage V gametocytes were incubated for 24 hr in the presence of the test compounds. Gamete formation was then triggered by addition of 2uM xantheurenic acid and temperature decrease to ~20C. Male gamete exflagellation was recorded and analysed by automated microscopy after 20 min. All compounds were tested in 4 independent experiments and data presented here is the mean. IC50s determined for selected compounds. It is filed as functional, organism-based.

The test system of test [6] is Plasmodium falciparum. The experiment in a line: MMV: P. falciparum NF54 functionally mature Stage V gametocytes were incubated for 24 hr in the presence of the test compounds. Gamete formation was then triggered by addition of 2uM xantheurenic acid and temperature decrease to ~20C. Female gamete formation was recorded 24 hr later by automated microscopy detection of surface labelling of female gametes with a Cy3-conjugated antibody reactive to Pfs25. All compounds were tested in 4 independent experiments and data presented here is the mean. IC50s determined for selected compounds. The class given is functional, organism-based. Particulars: NF54, 24 h.

For `CN(C)CCCNc1c2ccccc2nc2ccccc12`, the inhibition (in general, the relative decrease from the control value, in per cent) in test [1] was 96.2%; in test [3], 97.5%; in test [4], 24.6%. In addition, the IC50 (usually the midpoint of a concentration-inhibition curve) in test [2] came out at 292 nM; in test [5], 130 nM; in test [6] it was 1070 nM.

With `COc1ccc(-c2cc3c(nn2)-c2ccccc2C3=O)cc1`, the values for the inhibition in test [1], in test [3] and in test [4] were 2.461%, 71.3% and -5.89%, respectively. Further, the results for the IC50 in test [2], in test [5] and in test [6] were 5760 nM, 3710 nM and more than 50000 nM, respectively.

`COc1ccc(C2c3ccc4ccccc4c3Oc3ncn(CCCN(C)C)c(=N)c32)cc1` (configuration not stated): the inhibition was -7.365% in test [1], 83.6% in test [3] and 27.3% in test [4]. Besides, the values for the IC50 in test [2], in test [5] and in test [6] were 3490 nM, 183 nM and 473 nM, respectively.

Regarding `COc1ccc2c(c1)C1(Nc3ccccc3-c3nc4ccccc4n31)C(=O)N2` (configuration not stated), the inhibition in test [1] turned out to be 54.64%; in test [3] it was 48.2%; in test [4] it was 24%. The IC50 in test [5] stood at 2900 nM; in test [6], 6450 nM.

As to `CCOC(=O)c1cnc2ccc(CC)cc2c1O`, the results for the inhibition in test [1], in test [3] and in test [4] were 97.88%, 65.8% and 9.93%, respectively. In addition, the IC50 is 287 nM in test [2], 570 nM in test [5] and more than 50000 nM in test [6].

As to `OC1=C2C(=Nc3ccccc3SC2c2ccccc2)c2ccccc21` (configuration not stated), the inhibition in test [1] is 97.46%; in test [3], 58.8%; in test [4], -16.4%. Moreover, the values for the IC50 in test [2], in test [5] and in test [6] were 12800 nM, 3240 nM and more than 50000 nM, respectively.

As for `COc1cccc(NC(=O)[C@H](C(C)C)n2c(=O)[nH]c3ccccc3c2=O)c1`, the inhibition worked out at 58.53% in test [1], 70.9% in test [3] and 36.6% in test [4]. Besides, the IC50 amounted to 464 nM in test [2], 241 nM in test [5] and 384 nM in test [6].

Take `CCOC(=O)c1cn(CC)c2cc(N(C)CCc3ccc(OC)c(OC)c3)c(F)cc2c1=O`: the results for the inhibition in test [1], in test [3] and in test [4] were 20.52%, 71.2% and -15%, respectively. The IC50 in test [5] is 45 nM; in test [6] it was more than 50000 nM.

Regarding `COc1ccc(C=C2SC(=N)N(c3ccccc3OC)C2=O)cc1`, the inhibition in test [1] was 72.74%; in test [3] it was 77.3%; in test [4] it was -7.34%. Further, the IC50 in test [2] is 96.2 nM; in test [5], 481 nM; in test [6], more than 50000 nM.

Take `CCn1c(CN2CCN(Cc3ccccc3)CC2)nc2cc(NC(=O)c3cccs3)ccc21`: the inhibition is 78.13% in test [1], 67.4% in test [3] and -15.4% in test [4]. Moreover, the IC50 is 487 nM in test [2], 288 nM in test [5] and more than 50000 nM in test [6].

For `Cl.Clc1cc(Br)ccc1-c1ccc(CNCC2CCNCC2)o1`, the inhibition was -9.542% in test [1], 74.1% in test [3] and 38.1% in test [4]. Besides, the figures for the IC50 in test [2], in test [5] and in test [6] were 7820 nM, 25.5 nM and 159 nM, respectively.

Regarding `O=C1c2ccccc2C2=Nc3ccccc3SC(c3cccc(F)c3)C12` (configuration not stated), the inhibition in test [1] came out at 71.31%; in test [3] it was 70.7%; in test [4], 11%. Moreover, the IC50 is 1060 nM in test [2], 2140 nM in test [5] and more than 50000 nM in test [6].

On to `COc1ccccc1NC1=C(N2CCCCC2)C(=O)c2ccccc2C1=O`, for which the inhibition in test [1] was -14.08%; in test [3] it was 96.8%; in test [4], -15.9%. For the same molecule, the half-maximal inhibitory concentration (IC50) in test [2] was 4250 nM; in test [5], 96 nM; in test [6] it was more than 50000 nM.

Regarding `CCOC(=O)c1cn(CC)c2cc(N3CCCCC3)c(F)cc2c1=O`, the results for the inhibition in test [1], in test [3] and in test [4] were 41.89%, 92.4% and -15.2%, respectively. Besides, the IC50 in test [2] was 2190 nM; in test [5], 365 nM; in test [6], more than 50000 nM.

As for `CCOC(=O)c1ccc2nc(-c3ccccc3)cc(O)c2c1`, the figures for the inhibition in test [1], in test [3] and in test [4] were 27.95%, 63.6% and 2.21%, respectively. In addition, the IC50 in test [2] was 208 nM; in test [5], 237 nM; in test [6] it was more than 50000 nM.

For the molecule `OC1CCCCC1C1(NC(=S)Nc2ccccc2)CCCCC1` (configuration not stated), the values for the inhibition in test [1], in test [3] and in test [4] were 14.01%, 80.7% and 73.8%, respectively. Further, the IC50 in test [2] worked out at 16400 nM; in test [5], 384 nM; in test [6] it was 614 nM.

As to `OC1=C2C(=Nc3ccccc3SC2c2ccc(Br)cc2)c2ccccc21` (configuration not stated), the inhibition in test [1] turned out to be 56.77%; in test [3], 62.9%; in test [4], 8.27%. The IC50 in test [2] is 2270 nM; in test [5], 3410 nM; in test [6], more than 50000 nM.

For the molecule `CC1CC2=C(CC1CNCCCN(C)C)C(C)(C)CCC2` (configuration not stated), the inhibition in test [1] was -10.78%; in test [3] it was 62.3%; in test [4] it was 56.1%. Also, the IC50 in test [2] was determined as 6500 nM; in test [5], 139 nM; in test [6], 189 nM.

Regarding `CN(C)c1ccc(C(O)(c2ccc(N(C)C)cc2)c2ccc(N(C)C)cc2)cc1` [METHYLROSANILINE], the inhibition in test [1] was 62.53%; in test [3], 19.7%; in test [4], 44.6%. For the same molecule, the values for the IC50 in test [2], in test [5] and in test [6] were 991 nM, 977 nM and 446 nM, respectively.
